For series [1] the following is noted: Liquid; for mass density: 298.15 K, 101.33 kPa.
Series [2] is described as follows: refractive index (Na D-line) (dimensionless). To be noted: 298.15 K; 101.33 kPa; Liquid; Standard Abbe refractometry.

Structures are written as SMILES. ± gives the expanded uncertainty stated by the source.

Experimental findings from the NIST ThermoML archive (doi:10.1021/je060469v) are described below.

What is called mass density is mass per unit of volume. Broadly, the vapor or sublimation pressure is the equilibrium pressure above the liquid or solid. Broadly, the refractive index is a measure of how strongly the sample bends light. `CCCC(=O)OC` [methyl butanoate]: the mass density in series [1] was 892.16 ± 0.34 kg/m3. For the same molecule, the “vapor or sublimation pressure” value in series [1] (372.31 K) came out at 93.32 ± 1.9 kPa. Moreover, the refractive index in series [2] was determined as 1.3847 ± 0.0007.
Consider `CCCCCC(=O)OC` [methyl hexanoate], for which the mass density in series [1] turned out to be 879.47 ± 0.36 kg/m3. Also, in series [1] (419.67 K), the “vapor or sublimation pressure” value turned out to be 93.32 ± 2.4 kPa. Moreover, the refractive index in series [2] turned out to be 1.4048 ± 0.0007.
Consider `CCCCC(=O)OC` [methyl pentanoate], for which, in series [1], the mass density is recorded as 884.8 ± 0.35 kg/m3. Also, the “vapor or sublimation pressure” value in series [1] (396.65 K) was determined as 93.32 ± 2.4 kPa. In addition, the refractive index in series [2] was determined as 1.3971 ± 0.0007.
`CCC#N` [propanenitrile]: in series [1], the mass density amounted to 776.85 ± 0.51 kg/m3. For the same molecule, in series [1] (367.78 K), the “vapor or sublimation pressure” value was 93.32 ± 1.9 kPa. In addition, in series [2], the refractive index came out at 1.36368 ± 0.00073.
